Data published in US9328138B2 (priority 2011, dated 2016).

Legend:
[1] = target: T1, HCV genotype 1b (BK) NS3 modified enzyme with a R155K mutation (Hepatitis C virus genotype 1b, UniProt P26663, R1181K); assay: HCV NS3 protease time-resolved fluorescence (TRF) assay, genotype 1b R155K; type: biochemical; settings: Ki 1b R155K, genotype 1b (BK) NS3 R155K; single value
T1 construct: HCV genotype 1b (BK) NS3 modified enzyme
Summary of the method: (§1)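 Time-resolved fluorescence, ex 340/em 615 nm, 400 μs delay; IC50 by four-parameter fit. Enzyme preincubated with compound 10 min, then TRF substrate 25 nM final added and reaction run 6 h at RT. Buffer HEPES pH 7.5 with NaCl, glycerol, Triton X-100, DTT, PEG 8000.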

[2] = target: HCV NS3 protease genotype 3a (3A-1) (Hepatitis C virus genotype 3a, UniProt Q81258); assay: HCV NS3 protease time-resolved fluorescence (TRF) assay, genotype 3a; type: biochemical; settings: Ki 3a
Summary of the method: as §1

| SMILES | Ki [1] [nM] | Ki [2] [nM] |
| --- | --- | --- |
| C=C[C@@H]1C[C@]1(NC(=O)[C@@H]1C[C@@H]2CN1C(=O)[C@H](C1CCCC1)NC(=O)O[C@@H]1CCC[C@H]1CC/C=C/Cc1c(nc3ccc(Br)cc3c1O)O2)C(=O)NS(=O)(=O)C1CC1 [Example 22, (3aR,7S,10S,12R,21E,24aS)-17-bromo-7-cyclopentyl-N-{(1R,2S)-1-[(cyclopropylsulfonyl)carbamoyl]-2-ethenylcyclopropyl}-19-hydroxy-5,8-dioxo-1,2,3,3a,5,6,7,8,11,12,20,23,24,24a-tetradecahydro-10H-9,12-methanocyclopenta[18,19][1,10,3,6]dioxadiazacyclononadecino[11,12-b]quinoline-10-carboxamide] | 0.33 | 9.3 |
| C=C[C@@H]1C[C@]1(NC(=O)[C@@H]1C[C@@H]2CN1C(=O)[C@H](C1CCCC1)NC(=O)O[C@@H]1CCC[C@H]1CC/C=C/Cc1c(nc3ccccc3c1O)O2)C(=O)NS(=O)(=O)C1(C)CC1 [Example 23, (3aR,7S,10S,12R,21E,24aS)-7-cyclopentyl-N-[(1R,2S)-2-ethenyl-1-{[(1-methylcyclopropyl)sulfonyl]carbamoyl}cyclopropyl]-19-hydroxy-5,8-dioxo-1,2,3,3a,5,6,7,8,11,12,20,23,24,24a-tetradecahydro-10H-9,12-methanocyclopenta[18,19][1,10,3,6]dioxadiazacyclononadecino[11,12-b]quinoline-10-carboxamide] | 0.11 | 0.64 |
| C=C[C@@H]1C[C@]1(NC(=O)[C@@H]1C[C@@H]2CN1C(=O)[C@H](C1CCCC1)NC(=O)O[C@@H]1CCC[C@H]1CCCCCc1c(nc3ccccc3c1OCC)O2)C(=O)NS(=O)(=O)C1CC1 [Example 24, (3aR,7S,10S,12R,24aR)-7-cyclopentyl-N-{(1R,2S)-1-[(cyclopropylsulfonyl)carbamoyl]-2-ethenylcyclopropyl}-19-ethoxy-5,8-dioxo-1,2,3,3a,5,6,7,8,11,12,20,21,22,23,24,24a-hexadecahydro-10H-9,12-methanocyclopenta[18,19][1,10,3,6]dioxadiazacyclononadecino[11,12-b]quinoline-10-carboxamide] | 0.39 | 9.1 |
| CCOc1c2c(nc3ccccc13)O[C@@H]1C[C@@H](C(=O)N[C@]3(C(=O)NS(=O)(=O)C4CC4)C[C@H]3CC)N(C1)C(=O)[C@H](C1CCCC1)NC(=O)O[C@@H]1CCC[C@H]1CCCCC2 [Example 25, (3aR,7S,10S,12R,24aR)-7-cyclo pentyl-N-{(1R,2R)-1-[(cyclopropylsulfonyl)carbamoyl]-2-ethylcyclopropyl}-19-ethoxy-5,8-dioxo-1,2,3,3a,5,6,7,8,11,12,20,21,22,23,24,24a-hexadecahydro-10H-9,12-methanocyclopenta[18,19][1,10,3,6]dioxa diazacyclononadecino[11,12-b]quinoline-10-carboxamide] | 5.2 | 88 |
| C=C[C@@H]1C[C@]1(NC(=O)[C@@H]1C[C@@H]2CN1C(=O)[C@H](C1CCCC1)NC(=O)O[C@@H]1CCC[C@H]1CCCCCc1c(nc3ccccc3c1OC)O2)C(=O)NS(=O)(=O)C1CC1 [Example 26, (3aR,7S,10S,12R,24aR)-7-cyclo pentyl-N-{(1R,2S)-1-[(cyclopropylsulfonyl)carbamoyl]-2-ethenylcyclopropyl}-19-methoxy-5,8-dioxo-1,2,3,3a,5,6,7,8,11,12,20,21,22,23,24,24a-hexadecahydro-10H-9,12-methanocyclopenta [18,19][1,10,3,6]dioxadiazacyclononadecino [11,12-b]quinoline-10-carboxamide] | 0.33 | 13 |
| CC[C@@H]1C[C@]1(NC(=O)[C@@H]1C[C@@H]2CN1C(=O)[C@H](C1CCCC1)NC(=O)O[C@@H]1CCC[C@H]1CCCCCc1c(nc3ccccc3c1OC)O2)C(=O)NS(=O)(=O)C1CC1 [Example 27, (3aR,7S,10S,12R,24aR)-7-cyclo pentyl-N-{(1R,2R)-1-[(cyclopropylsulfonyl)carbamoyl]-2-ethylcyclopropyl}-19-methoxy-5,8-dioxo-1,2,3,3a,5,6,7,8,11,12,20,21,22,23,24,24a-hexadeca hydro-10H-9,12-methanocyclopenta[18,19] [1,10,3,6]dioxadiazacyclononadecino[11,12-b] quinoline-10-carboxamide] | 2.5 | 59 |
| C=C[C@@H]1C[C@]1(NC(=O)[C@@H]1C[C@@H]2CN1C(=O)[C@H](C1CCCC1)NC(=O)O[C@@H]1C[C@H]1CCCCCc1c(nc3ccccc3c1OC)O2)C(=O)NS(=O)(=O)C1CC1 [Example 28, (1aR,5S,8S,10R,22aR)-5-cyclo pentyl-N-{(1R,2S)-1-[(cyclopropylsulfonyl)carbamoyl]-2-ethenylcyclopropyl}-17-methoxy-3,6-dioxo-1,1a, 3,4,5,6,9,10,18,19,20,21,22,22a-tetradecahydro-8H-7,10-methanocyclopropa[18,19][1,10,3,6] dioxadiazacyclononadecino[11,12-b]quinoline-8-carboxamide] | 0.7 | 35 |
| C=C[C@@H]1C[C@]1(NC(=O)[C@@H]1C[C@@H]2CN1C(=O)[C@H](C1CCCC1)NC(=O)O[C@@]1(C)CCC[C@@H]1CCCCCc1c(nc3ccccc3c1O)O2)C(=O)NS(=O)(=O)C1CC1 [Example 30, (3aS,7S,10S,12R,24aS)-7-cyclopentyl-N-{(1R,2S)-1-[(cyclopropylsulfonyl)carbamoyl]-2-ethenylcyclopropyl}-19-hydroxy-3a-methyl-5,8-dioxo-1,2,3,3a,5,6,7,8,11,12,20,21,22,23,24,24a-hexa-decahydro-10H-9,12-methanocyclopenta[18,19] [1,10,3,6]dioxadiazacyclononadecino[11,12-b] quinoline-10-carboxamide] | 1.3 | 4.9 |
| CC[C@@H]1C[C@]1(NC(=O)[C@@H]1C[C@@H]2CN1C(=O)[C@H](C1CCCC1)NC(=O)O[C@@]1(C)CCC[C@@H]1CCCCCc1c(nc3ccccc3c1O)O2)C(=O)NS(=O)(=O)C1CC1 [Example 31, (3aS,7S,10S,12R,24aS)-7-cyclopentyl-N-{(1R,2R)-1-[(cyclopropylsulfonyl)carbamoyl]-2-ethylcyclopropyl}-19-hydroxy-3a-methyl-5,8-dioxo-1,2,3-3a,5,6,7,8,11,12,20,21,22,23,24,24a-hexadeca hydro-10H-9,12-methanocyclopenta[18,19] [1,10,3,6]dioxadiazacyclononadecino[11,12-b] quinoline-10-carboxamide] | 4.1 | 23 |
| C=C[C@@H]1C[C@]1(NC(=O)[C@@H]1C[C@@H]2CN1C(=O)[C@H](C1CCCC1)NC(=O)N1CC[C@@H](C1)OCCCCCCc1c(nc3ccccc3c1OCC)O2)C(=O)NS(=O)(=O)C1CC1 [Example 33, (2R,4S,7S,13S)-7-cyclopentyl-N-{(1R,2S)-1-[(cyclopropylsulfonyl)carbamoyl]-2-ethenylcyclopropyl}-21-ethoxy-6,9-dioxo-3,4,6,7,8,9,12, 13,15,16,17,18,19,20-tetradecahydro-2H,11H-2,5:10,13-dimethano[1,14,5,7,10]dioxatriazacyclo docosino[15,16-b]quinoline-4-carboxamide] | 0.32 | 22 |
| C=C[C@@H]1C[C@]1(NC(=O)[C@@H]1C[C@@H]2CN1C(=O)[C@H](C1CCCC1)NC(=O)O[C@@H]1CCC[C@H]1CCCCCc1c(nc3ccccc3c1O)O2)C(=O)NS(=O)(=O)C1CC1 [Example 34, (3aR,7S,10S,12R,24aR)-7-cyclo pentyl-N-{(1R,2S)-1-[(cyclopropylsulfonyl)carbamoyl]-2-ethenylcyclopropyl}-19-hydroxy-5,8-dioxo-1,2,3,3a,5,6,7,8,11,12,20,21,22,23,24,24a-hexadecahydro-10H-9,12-methanocyclopenta [18,19][1,10,3,6]dioxadiazacyclononadecino [11,12-b]quinoline-10-carboxamide] | 0.1 | 1.8 |
| C=C[C@@H]1C[C@]1(NC(=O)[C@@H]1C[C@@H]2CN1C(=O)[C@H](C(C)(C)C)NC(=O)O[C@@H]1CCC[C@H]1CCCCCc1c(nc3ccccc3c1O)O2)C(=O)NS(=O)(=O)C1(COC)CC1 [Example 35, (3aR,7S,10S,12R,24aR)-7-tert-butyl-N-[(1R,2S)-2-ethenyl-1-({[1-(methoxymethyl)cyclopropyl]sulfonyl}carbamoyl)cyclopropyl]-19-hydroxy-5,8-dioxo-1,2,3,3a,5,6,7,8,11,12, 20,21,22,23,24,24a-hexadecahydro-10H-9,12-methanocyclopenta[18,19][1,10,3,6] dioxadiazacyclononadecino[11,12-b]quinoline-10-carboxamide] | 0.15 | 2 |
| C=C[C@@H]1C[C@]1(NC(=O)[C@@H]1C[C@@H]2CN1C(=O)[C@H](C(C)(C)C)NC(=O)O[C@@H]1CCC[C@H]1CCCCCc1c(nc3ccccc3c1O)O2)C(=O)NS(=O)(=O)C1(COCc2ccccc2)CC1 [Example 36, (3aR,7S,10S,12R,24aR)-N-{(1R,2S)-1-[({1-[(benzyloxy)methyl]cyclopropyl}sulfonyl)carbamoyl]-2-ethenylcyclopropyl}-7-tert-butyl-19-hydroxy-5,8-dioxo-1,2,3,3a,5,6,7,8,11,12, 20,21,22,23,24,24a-hexadeca hydro-10H-9,12-methanocyclopenta[18,19][1,10,3,6] dioxadiazacyclononadecino[11,12-b] quinoline-10-carboxamide] | 0.15 | 3.2 |
